Data as given in article PMC7144554, “2-(Arylamino)-6-(trifluoromethyl)nicotinic Acid Derivatives: New HIV-1 RT Dual Inhibitors Active on Viral Replication” (Molecules, 2020).

Assays:
[1] = molecular target: T1, HIV-1 RT-associated RNase H activity (wt RT) (Human immunodeficiency virus type 1 group M subtype B, UniProt P04585); assay: HIV-1 DNA polymerase-independent RNase H activity, wt RT; assay type: biochemical; conditions: for IC50: RNase H IC50, wt RT; for RNase H IC50 / percentage in parenthesis in presence of the highest concentration of inhibitor tested (RNase H): wt RT
T1 construct: RT is a heterodimeric (p66/p51) multifunctional enzyme; made in house; host or cells: Escherichia coli strain M15
Description: p6HRT-prot vector was kindly provided by Dr. Stuart Le Grice Laboratory. Heterodimeric RT was expressed essentially as described. Briefly, Escherichia coli strain M15 containing the p6HRT-prot vector were grown up to an OD600 of 0.7 and induced with isopropyl β-D-1-thiogalactopyranoside (IPTG) 1.7 mM for 4 h. Cell pellets were resuspended in Lysis buffer (50 mM sodium phosphate pH 7.8, 0.5 mg/mL lysozyme), incubated on ice for 20 min, added 0.3 M final NaCl, sonicated and centrifuged at 30,000× g for 1 h. The supernatant was loaded into a Ni^2+-sepharose column pre-equilibrated with loading buffer (50 mM sodium phosphate pH 7.8, 0.3 M NaCl, 10% glycerol, 10 mM imidazole) and washed thoroughly with wash buffer (50 mM sodium phosphate pH 6.0, 0.3 M NaCl, 10% glycerol, 80 mM imidazole). RT was gradient-eluted with elute buffer (wash buffer with 0.5 M imidazole). Fractions were collected, protein purity was checked by SDS-PAGE and found to be higher than 90%. RT containing fractions were pooled and diluted 1:1 with dilute buffer (50 mM sodium phosphate pH 7.0, 10% glycerol) then loaded into a Hi-trap Heparine HP GE (Healthcare Lifescience) pre-equilibrated with 10-column volume of loading buffer 2 (50 mM sodium phosphate pH 7.0, 10% glycerol, 150 mM NaCl). Column was then washed with loading buffer 2 and RT was gradient-eluted with elute buffer 2 (50 mM sodium phosphate pH 7.0, 10% glycerol, 150 mM NaCl). Fractions were collected, protein was dialyzed and stored in buffer containing 50 mM Tris HCl pH 7.0, 25 mM NaCl, 1 mM EDTA, 50% glycerol. Catalytic activities and protein concentration were determined. Enzyme-containing fractions were pooled and aliquots were stored at −80 °C.
The RT-associated RNase H activity of wt and mutated HIV RTs was measured as described, in 100 µL reaction volume containing 50 mM Tris HCl pH 7.8, 6 mM MgCl2, 1 mM dithiothreitol (DTT), 80 mM KCl, hybrid RNA/DNA (5’-[…]-3’-Fluorescein, 5’-[…]-3’-Dabcyl), and different amounts of enzymes according to a linear range of dose-response curve—20 ng of wt RT; 50 ng K103N RT; 100 ng V108A RT; 4 ng Y181C RT; 100 ng Q475A RT; 100 ng A502F RT. The reaction mixture was incubated for 1 h at 37 °C, the reaction was stopped by addition of EDTA and products were measured with a Victor 3 (Perkin) at 490/528 nm.

[2] = tested on: HIV-1 IIIB strain; assay: Antiviral assay, HIV-1 replication in TZMbl cells (luciferase); assay type: cell-based; conditions: TZMbl cells; for EC50: Human immunodeficiency virus 1, TZM-bl, read-out: HIV-1 EC50 TZMbl Cells
Description: Drug-mediated inhibition of virus-induced cytotoxicity was assayed in TZM-BL cells. […] Serial dilutions of drugs were added immediately after infection. Luciferase activity was measured as reported [67]. Two days after infection, the culture medium was removed from each well and 100 µl of Bright Glo reagent (Promega, Luis Obispo, CA) was added to the cells for measurement of luminescence using a Victor 2 luminometer (Perkin). […] Cell viability in CEM cells was quantified 5 days after infection with the MTT-dye reduction method.

[3] = Cytotoxicity in TZMbl cells; assay type: cell-based; conditions: human
[4] = Cell viability in CEM cells (MTT); assay type: cell-based; conditions: human, MTT, 5 days
Description: Drug-mediated inhibition of virus-induced cytotoxicity was assayed in TZM-BL cells. Triplicate wells of 96-well plates containing 1 × 10^4 TZMbl cells were infected with HIV-1 IIIB strain at a multiplicity of infection of 0.1. Serial dilutions of drugs were added immediately after infection. Luciferase activity was measured as reported. Two days after infection, the culture medium was removed from each well and 100 µl of Bright Glo reagent (Promega, Luis Obispo, CA) was added to the cells for measurement of luminescence using a Victor 2 luminometer (Perkin). The 50% effective concentration (EC50) was defined as the concentration that caused a 50% reduction of luciferase activity (relative light units) compared to virus control wells. Cell viability in CEM cells was quantified 5 days after infection with the MTT-dye reduction method.

Compound	IC50 [1] [µM]	RNase H IC50 [1]	percentage in parenthesis in presence of the highest concentration of inhibitor tested (RNase H) [1]	melting point [°C]	EC50 ([2]; HIV-1 IIIB) [µM]	HIV-1 EC50 TZMbl Cells ([2]; HIV-1 IIIB)	CC50 [3] [µM]	CC50 at 5 days [4] [µM]	SI (selectivity index) [2]
Cc1ccc(Cl)cc1Nc1nc(C(F)(F)F)ccc1C(N)=O [Compound 6]	> 100	completely inactive	87%	–	–	–	–	–	–
Cc1ccc(Cl)cc1Nc1nc(C(F)(F)F)ccc1C(=O)Oc1ccccc1Cl [Compound 11]	> 100	–	92%	–	–	–	–	–	–
Cc1ccc(Cl)cc1Nc1nc(C(F)(F)F)ccc1C(=O)Oc1cccc(Cl)c1 [Compound 12]	> 100	–	98%	–	–	–	–	–	–
Cc1ccc(Cl)cc1Nc1nc(C(F)(F)F)ccc1C(=O)Oc1ccc(Cl)cc1Cl [Compound 14]	> 100	abolished the activity	98%	–	–	–	–	–	–
Cc1ccc(Cl)cc1Nc1nc(C(F)(F)F)ccc1C(=O)Oc1c(Cl)cc(Cl)cc1Cl [Compound 15]	31.8 ± 3.5	–	–	–	–	–	–	–	–
Cc1ccc(Cl)cc1Nc1nc(C(F)(F)F)ccc1C(=O)Oc1ccc(O)cc1 [Compound 18, 4-Hydroxyphenyl 2-((5-chloro-2-methylphenyl)amino)-6-(trifluoromethyl)nicotinate]	20 ± 1.3	–	–	184 to 186	–	–	–	–	–
COc1cccc(OC(=O)c2ccc(C(F)(F)F)nc2Nc2cc(Cl)ccc2C)c1 [Compound 19]	> 100	–	80%	–	–	–	–	–	–
COc1ccc(OC(=O)c2ccc(C(F)(F)F)nc2Nc2cc(Cl)ccc2C)cc1OC [Compound 20, 3,4-Dimethoxyphenyl-2-((5-chloro-2-methylphenyl)amino)-6-(trifluoromethyl)nicotinate]	21 ± 11	–	–	–	–	–	–	–	–
COc1cc(OC(=O)c2ccc(C(F)(F)F)nc2Nc2cc(Cl)ccc2C)cc(OC)c1OC [Compound 22, 3,4,5-Trimethoxyphenyl 2-((5-chloro-2-methylphenyl)amino)-6-(trifluoromethyl)nicotinate]	17.3 ± 1.3	–	–	138 to 140	–	–	–	–	–
Cc1ccc(Cl)cc1Nc1nc(C(F)(F)F)ccc1C(=O)NO [Compound 25, 2-((5-Chloro-2-methylphenyl)amino)-N-hydroxy-6-(trifluoromethyl)nicotinamide]	0.77 ± 0.06	–	–	154 to 155	> 10	inactive	14 ± 2.8	35	–
CCOC(=O)CNC(=O)c1ccc(C(F)(F)F)nc1Nc1cc(Cl)ccc1C [Compound 26, Ethyl 2-(2-((5-chloro-2-methylphenyl)amino)-6-(trifluoromethyl)nicotinamido)acetate]	> 100	–	>100 (100%)	128 to 130	–	–	–	–	–
Cc1ccc(Cl)cc1Nc1nc(C(F)(F)F)ccc1C(=O)Nc1cccnc1 [Compound 27]	25 ± 4.9	–	–	–	> 5.8	–	5.8 ± 0.8	16.2	–
CSc1ccc(NC(=O)c2ccc(C(F)(F)F)nc2Nc2cc(Cl)ccc2C)cc1 [Compound 28, 2-((5-Chloro-2-methylphenyl)amino)-N-(4-(methylthio)phenyl)-6-(trifluoromethyl)nicotinamide]	5.9 ± 0.9	–	–	–	–	–	–	–	–
Cc1cccc(NC(=O)c2ccc(C(F)(F)F)nc2Nc2cc(Cl)ccc2C)c1 [Compound 29]	8.9 ± 0.1	–	–	–	2.5 ± 0.4	–	3.9 ± 0.9	6.3	1.6
Cc1ccc(Cl)cc1Nc1nc(C(F)(F)F)ccc1C(=O)Nc1cccc(Cl)c1 [Compound 30]	4 ± 2.2	–	–	–	> 3.9	–	3.9 ± 0.9	8.4	–
Cc1ccc(Cl)cc1Nc1nc(C(F)(F)F)ccc1C(=O)Nc1ccc(Cl)cc1Cl [Compound 31]	8.8 ± 0.5	–	–	–	> 4.7	–	4.7 ± 1.7	7.8	–
COc1ccc(NC(=O)c2ccc(C(F)(F)F)nc2Nc2cc(Cl)ccc2C)cc1Cl [Compound 32]	> 100	–	>100 (100%)	–	–	–	–	–	–
COc1cccc(NC(=O)c2ccc(C(F)(F)F)nc2Nc2cc(Cl)ccc2C)c1 [Compound 33]	> 100	abolished the activity	54%	–	–	–	–	–	–
COc1cc(NC(=O)c2ccc(C(F)(F)F)nc2Nc2cc(Cl)ccc2C)cc(OC)c1 [Compound 34]	17.5 ± 3.9	–	–	–	2 ± 0.3	–	5.3 ± 0.6	10.4	2.6
COc1ccc(NC(=O)c2ccc(C(F)(F)F)nc2Nc2cc(Cl)ccc2C)cc1OC [Compound 35]	22.4 ± 4	–	–	–	–	–	–	–	–
COc1cc(NC(=O)c2ccc(C(F)(F)F)nc2Nc2cc(Cl)ccc2C)cc(OC)c1OC [Compound 36]	19.4 ± 1.5	–	–	–	1.8 ± 0.6	–	2.2 ± 0.4	10.2	1.2
Cc1ccc(Cl)cc1Nc1nc(C(F)(F)F)ccc1C(=O)Nc1ccc(C(F)(F)F)cc1 [Compound 37]	7.8 ± 1.2	–	–	–	> 2.2	–	2.2 ± 0.2	4.3	–
Cc1ccc(Cl)cc1Nc1nc(C(F)(F)F)ccc1C(=O)NCc1ccccc1Cl [Compound 38, N-(2-chlorobenzyl)-2-((5-chloro-2-methylphenyl)amino)-6-(trifluoromethyl)nicotinamide]	19.4 ± 1.1	–	–	–	> 5.7	–	5.7 ± 0.7	12.5	–
Cc1ccc(Cl)cc1Nc1nc(C(F)(F)F)ccc1C(=O)NCc1ccc(Cl)cc1 [Compound 40, N-(4-chlorobenzyl)-2-((5-chloro-2-methylphenyl)amino)-6-(trifluoromethyl)nicotinamide]	6.4 ± 0.5	–	–	130 to 131	> 4.7	–	4.7 ± 0.4	7.75	–
Cc1ccc(Cl)cc1Nc1nc(C(F)(F)F)ccc1C(=O)NCc1ccc(F)cc1 [Compound 41, 2-((5-Chloro-2-methylphenyl)amino)-N-(4-fluorobenzyl)-6-(trifluoromethyl)nicotinamide]	23.3 ± 3.1	–	–	–	> 6	–	6 ± 0.6	11.6	–
Cc1ccc(Cl)cc1Nc1nc(C(F)(F)F)ccc1C(=O)NCc1ccc(C(F)(F)F)cc1 [Compound 42, 2-((5-Chloro-2-methylphenyl)amino)-6-(trifluoromethyl)-N-(4-(trifluoromethyl)benzyl)nicotinamide]	21.9 ± 0.2	–	–	170 to 171	> 3.6	–	3.6 ± 1.2	5	–
COc1ccc(CNC(=O)c2ccc(C(F)(F)F)nc2Nc2cc(Cl)ccc2C)cc1 [Compound 43, 2-((5-Chloro-2-methylphenyl)amino)-N-(4-methoxybenzyl)-6-(trifluoromethyl)nicotinamide]	30.4 ± 3.9	–	–	–	> 10	–	13.2 ± 1.3	20	–
Cc1ccc(CNC(=O)c2ccc(C(F)(F)F)nc2Nc2cc(Cl)ccc2C)cc1 [Compound 44, 2-((5-Chloro-2-methylphenyl)amino)-N-(4-methylbenzyl)-6-(trifluoromethyl)nicotinamide]	21.3 ± 0.5	–	–	–	> 1.1	–	1.1	3.5	–
Cc1ccc(Cl)cc1Nc1nc(C(F)(F)F)ccc1C(=O)N1CCN(c2ccccc2)CC1 [Compound 48, (2-((5-Chloro-2-methylphenyl)amino)-6-(trifluoromethyl)pyridin-3-yl)(4-phenylpiperazin-1-yl)methanone]	> 100	–	>100 (100%)	118 to 120	–	–	–	–	–
